Assay results taken from a melting point compilation (Tetko et al.; mined from patent text by program, amines drawn as free bases though some values may be those of a salt).

Structure (SMILES) | melting point
COc1ccc(C(=O)c2cccc(N)c2)cc1OC | 157 to 175 °C
CCOC(=O)C1=C(C)Nc2cc(=O)[nH]n2C1c1cccc(Cl)c1Cl (stereo not given) | 213 to 218 °C
COc1cc(CC(C)=O)c([N+](=O)[O-])cc1Cl | 114 to 115 °C
CC(C)(C)c1nc2cc(N3CCN(S(C)(=O)=O)CC3)c([N+](=O)[O-])cc2s1 | 195 to 197 °C
C[C@@H](O)c1nccc(N2CCN(c3nc4cccnc4o3)CC2)n1 | 153 to 156 °C
CC1(C(=O)N2CCN(S(=O)(=O)c3ccc(Br)cc3)CC2)CCN(c2ccncn2)CC1 | 217 to 218 °C
Cc1csc2c1c(=O)oc(=O)n2Cc1ccccc1 | 183 °C
O=C(CN1C(=O)C(c2ccccc2)c2ccccc21)NCc1ccccc1 (stereo not given) | 182 to 183 °C
CN1CCC(=C2c3ccccc3COc3ccc(C(=O)O)cc32)CC1 | 205 to 210 °C
Cc1cc(-n2cncn2)cc(C#N)c1N | 231 to 233 °C
C=C(C)C(=O)OCCNc1nc(Cl)nc(Cl)n1 | 138 to 140 °C
CCOC(=O)/C(Cl)=N/Nc1ccc(OC)cc1 | 87 to 89 °C
CC(C)(C)C(=O)Oc1ccc(CCNC(=O)c2cccnc2)cc1 | 80 to 82 °C
CN1CCN(CCOc2ccc([C@H]3c4ccc(OCc5ccccc5)cc4OC[C@H]3c3ccccc3)cc2)CC1 (racemic) | 103 to 107 °C
O=C(O)CCC(=O)c1ccc(NC(=O)CCCl)cc1 | 181 to 182 °C
CCCOC(=Nc1sccc1C#N)OCCC | 65 to 67 °C
CC(C)NC(=O)c1cc2[nH]cnc2c(Cl)c1NC(=O)c1cc(C(F)(F)F)nn1-c1ncccc1Cl | 200 to 203 °C
O=C(NC1CCC(CCN2CCN(c3nccc4c3CCO4)CC2)CC1)C(O)C(F)(F)F (racemic) | 204 °C
CCNC(=Nc1ccccc1N1CCOCC1)NCC | 101 to 102 °C
COc1ccc(CCNC(=O)C23CC4CC(CC(C4)C2)C3)cc1OC | 132 to 133 °C
N=C(N)c1ccc(-c2ccc(-n3cc(CCC(=O)O)c4ccccc43)nn2)cc1 | 288 to 292 °C
O=C([C@H](Cc1ccccc1)NC1CCCCC1)N1CCN(C(c2ccc(F)cc2)c2ccc(F)cc2)CC1 | 60 to 64 °C
COc1cc(C(=O)O)ccc1OCCCCCOc1nc2ccccc2s1 | 130 to 131 °C
COc1ccc(C#CC(O)c2cccc(CN(O)C(N)=O)c2)cc1OC (stereo not given) | 146 °C

Structure (SMILES) | melting point
CCCCCCCCCCCCCCCCCCCCC(CCCCCCCCCCCCCC)C(=O)O (stereo not given) | 65 to 67 °C
CC(Cc1ccc2c(c1)OCO2)C(=O)O (stereo not given) | 121 °C
Cc1cccc(NC(=O)NC2N=C(C3CCCCC3)c3cccc(C)c3N(CC(=O)N3CCCCCCC3)C2=O)c1 (stereo not given) | 154 to 155 °C
CCOC(=O)c1c(CC)nn2ccc3oc(C)cc3c12 | 89 to 90 °C
COC(=O)c1ccc(Cn2ncc3ccc(NC(=O)CC4CCCC4)cc32)c(OC)c1 | 195 to 198 °C
CCCC(=O)c1cnc2c(OC)cccc2c1Nc1cccc(CO)c1C | 186 to 188 °C
CCOC(=O)c1cn(Cc2ccc(F)cc2)c2ccc(C(C)=O)cc2c1=O | 207 to 209 °C
O=C(c1ccccc1)c1cc([N+](=O)[O-])ccc1NC1CCCC1 | 95 °C
O=C1c2ccccc2C(=O)N1CCCOc1cccc([N+](=O)[O-])c1 | 149 to 152 °C
CC(C)(C)c1cc(Nc2cccc(Cl)c2)cc(C(C)(C)C)c1O | 110 to 111 °C
CC(=O)OCC1=C(c2ccccc2)C(=O)N(C(C)(C)C(=O)Nc2cccc(C(F)(F)F)c2)CO1 | 76.5 to 77.5 °C
O=C(CNc1ccccc1F)Nc1ccc(O)cc1 | 143 to 146 °C
COc1cc(OC)c(NC(=O)[C@H]2[C@H](c3ccccc3)C2(C)C)cc1Cl (relative stereo) | 160 to 162 °C
O=C(O)c1ccc(OCCNC(=O)C2Cc3ccccc3N2S(=O)(=O)c2ccc(-c3ccc(F)cc3)cc2)cc1F (stereo not given) | 109 to 113 °C
N#Cc1cccnc1N1CCN(CC(=O)Nc2ccc(F)c(C(F)(F)F)c2)CC1 | 120 to 122 °C
Cc1c(C(=O)Nc2ccc(N3CCC(N4CCOCC4)CC3)c([N+](=O)[O-])c2)cnn1-c1ccc(C(F)(F)F)cc1 | 225 to 230 °C
Cc1cc(-c2ccc(S(C)(=O)=O)cc2)n(-c2ccc(-c3ccco3)cc2)c1 | 133 to 135 °C
O=C(Nc1ccc(C2CC(F)(F)C2(F)Cl)cc1)Nc1nonc1-c1ccccc1 (stereo not given) | 201 °C
COC(=O)C=CC(=O)NC(N)=O | 112 to 114 °C
CON(C)C(=O)Nc1ccc(OCCc2ccc3c(c2)CC(C)(C)O3)nc1 | 79 to 80 °C
COC(=O)c1cccc(C)c1/C=C/Cc1c(OC)c(C)c2c(c1OC(C)=O)C(=O)OC2 | 104 to 111 °C
O=C(NCCCc1ccncc1)N(CCC12CC3CC(CC(C3)C1)C2)CC1CC1 | 123 to 125 °C
O=C1c2cccc(O)c2CCC1CN1CCC(O)(c2ccccc2)CC1 (stereo not given) | 187 to 189 °C
COc1ccc(C2=C(CO)c3ccc(OC)cc3CC2)cc1 | 121 °C

Structure (SMILES) | melting point
CSC(=NS(=O)(=O)c1ccc(C)cc1)N1CCc2nc(N)sc2C1 | 191 to 195 °C
CC1(C)Oc2ccc(C#N)cc2[C@@H](NC(=S)Nc2ccccc2)[C@@H]1O (relative stereo) | 183 to 185 °C
Cc1c(C(=O)O)cnn1-c1ccc(I)cc1 | 225 °C
CS(=O)(=O)c1ccc(-c2cc(C(F)F)cn2-c2ccc(F)cc2)cc1 | 98 to 100 °C
C[C@@H](NC(=O)c1ccc[nH]1)C(=O)N[C@H]1CC(=O)O[C@@H]1OCc1ccccc1 | 109 to 112 °C
CCc1nnc(-c2cccc(N(C)C)c2)n1-c1ccc(OC)cc1 | 170 °C
CCCCCC(COc1ccc(C(=O)O)cc1)c1ccc2c(c1)C(C)(C)CCS2 (racemic) | 168 to 169 °C
C=Cc1ccc(NS(C)(=O)=O)cc1 | 97 °C
O=C1N(c2cc(Cl)cc(Cl)c2)C(=O)C2(Cc3ccc(-c4nnn[nH]4)cc3)CCCN12 (stereo not given) | 195 °C
Cc1c(Br)cc(NC(=O)c2cccc(CSc3cnccn3)c2)cc1Br | 119 to 127 °C
CC12OCC(CO)(CO1)CO2 | 110 to 112 °C
NC(=O)c1cn(C(CO)CCc2ccccc2)cn1 (stereo not given) | 127 to 130 °C
OC1(COc2cccc3onc(OCC4CCN(CC5(O)CCOCC5)CC4)c23)CCCC1 | 136 °C
COC(=O)NC1CCc2c(ccc(OC)c2OC)C1 (stereo not given) | 109 to 111 °C
COC(=O)/C=C/c1ccc(N)nc1 | 173 to 175 °C
CCN1c2c(oc(=O)n(-c3ccccn3)c2=O)-c2ccccc2S1(=O)=O | 268 to 270 °C
OC[C@H]1OC[C@@H](n2cnc3cc(Cl)c(Cl)cc32)[C@H](O)[C@@H]1O | 160 to 162 °C
O=C(O)CC1CCCc2c1n(Cc1ccc(Cl)cc1)c1ccc(F)cc21 (single isomer, unassigned; (-)) | 151 to 152 °C
CCOC(=O)C1=Cc2cc(-c3ccc(S(C)(=O)=O)cc3)ccc2OCC1 | 150 to 153 °C
CCOCc1nc2c(N)nc3ccccc3c2n1CC1CCN(Cc2ccccc2)O1 (stereo not given) | 137 to 138 °C
COc1cc2c(cc1OCc1ccccc1)CCCN(Cc1cc(OC)c(OC)c(OC)c1)C2 | 44 to 46 °C
CN1CCC(c2c[nH]c3ccc(O)cc23)CC1 | 234 to 237 °C
